Among the data in patent publication US8008292B2, “Condensed benzamide compounds and inhibitors of vanilloid receptor subtype 1 (VR1) activity” (Japan Tobacco Inc., priority 2004, dated 2011) are IC50 values, retold here.

T1 sequence (Q8NER1 whole entry): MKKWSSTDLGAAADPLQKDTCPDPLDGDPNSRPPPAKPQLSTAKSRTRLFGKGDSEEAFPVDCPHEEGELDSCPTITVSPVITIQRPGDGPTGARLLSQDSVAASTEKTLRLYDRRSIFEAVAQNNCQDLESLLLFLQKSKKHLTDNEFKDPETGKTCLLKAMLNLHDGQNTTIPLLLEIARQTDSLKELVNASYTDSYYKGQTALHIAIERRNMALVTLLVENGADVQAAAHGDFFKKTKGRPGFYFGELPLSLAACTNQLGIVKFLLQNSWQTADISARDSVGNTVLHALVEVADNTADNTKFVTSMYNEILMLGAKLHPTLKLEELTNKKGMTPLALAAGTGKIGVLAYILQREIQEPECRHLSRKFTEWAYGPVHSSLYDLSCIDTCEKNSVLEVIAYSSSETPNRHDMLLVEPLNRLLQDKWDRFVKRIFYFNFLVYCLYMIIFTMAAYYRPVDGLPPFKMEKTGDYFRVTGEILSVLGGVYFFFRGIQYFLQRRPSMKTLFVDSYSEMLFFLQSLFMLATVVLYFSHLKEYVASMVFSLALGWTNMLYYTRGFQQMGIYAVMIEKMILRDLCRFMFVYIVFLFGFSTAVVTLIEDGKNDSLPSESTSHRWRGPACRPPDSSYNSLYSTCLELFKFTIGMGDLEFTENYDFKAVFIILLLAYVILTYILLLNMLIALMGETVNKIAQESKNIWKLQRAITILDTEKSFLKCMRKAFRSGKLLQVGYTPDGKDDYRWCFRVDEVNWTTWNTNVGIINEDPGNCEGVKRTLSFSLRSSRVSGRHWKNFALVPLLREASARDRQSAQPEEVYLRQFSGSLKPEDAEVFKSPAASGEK

The test has as its target T1, human VR1 (Homo sapiens, UniProt Q8NER1).
T1 construct: expressed in transfected cells
Put plainly: Inhibition of Ca2+ entry in cells caused by proton, in rat glioma (C6BU1) cells stably expressing human VR1 (Fura 2 fluorescence). In kind it is cell-based. The settings on record: inhibition of proton-induced Ca2+ entry. The procedure: The assay for evaluation of VR1 inhibition by the inventive compounds will be described below. The assay was intended to evaluate in vitro inhibition of Ca^2+ entry in cells caused by proton, one of the VR1 agonists.
Rat glioma (C6BU1) cells stably expressing human VR1 were suspended in 20 mM MES buffer (at pH 6.8, contg. 20 mM 2-morpholinoethanesulfonate (referred to as MES hereinafter), 115 mM NaCl, 5 mM KCl, 1 mM MgCl2 and 14 mM D-glucose) to make a cell density of 1×10^6 cells/mL. A fluorescent dye, Fura 2-AMsolution (DojindoCorporate, Cat. No. 343-05401) was added to the suspension to make a 5 μM concentration thereof. Further, Pluronic F-127 (Wako Pure Chemical Industries, Ltd., Cat. No. P6866) was added to make a 0.1% content thereof. Then, the suspension was incubated at 37° C. for 30 min. The cells were harvested and washed three times with 20 mM MES buffer. The cells were suspended again to make a cell density of 5×10^5 cells/mL. A 500-μL portion of the suspension was taken with a cuvette (MC MEDICAL, INC., Cat. No. SSR3121), to which 10 μL of 20 mM MES buffer containing 250 mM CaCl2 was added to incorporate Ca^2+ into the cells. At the same time, 5 μL of a test compound solution (in a range of 100 μM to 10 nM in DMSO) was also added to provide a final concentration thereof in a range of 1 μM to 0.1 nM. Alternatively, 5 μL of DMSO was added as control to provide a final concentration of 1% DMSO. The suspension was set in an intracellular ionometer (CAF-110; JASCO) 10 min after those additions. The cells were stimulated with protons by addition of 60 μL of 20 mM MES buffer at pH 1.1 to the suspension to set its pH at 5.5. The activity of the test compound was determined as a difference between the minimum of fluorescence intensity before agonist stimulation and its maximum after the stimulation. The value of IC50 was derived from percentage of inhibition by the test compound compared with the control.
In the tables, the symbol “++” indicates an IC50 value less than 100 nM and the symbol “+” indicates an IC50 value of 100 nM to 1,000 nM inclusive.
As for `Cc1ccc(N2CCOc3c(C(=O)Nc4ccc(OCC(C)C)c(C(=O)N(C)C)c4)cccc32)nc1` [Example 1-077], the IC50 (as a rule, the point on the concentration scale where inhibition reaches its midpoint) was 100 to 1000 nM.

Consider `Cc1ccc(N2CCOc3c(C(=O)Nc4ccc(C#N)cc4)cccc32)nc1` [Example 1-062], for which the IC50 is < 100 nM.

`Cc1ccc(N2CCOc3c(C(=O)Nc4ccc(N5CCC(OC(C)C)CC5)c(F)c4)cccc32)nc1` [Example 1-069]: the concentration for half-maximal inhibition (IC50) is < 100 nM.

In the case of `CC(C)COc1ccc(NC(=O)c2cccc3c2OCCN3c2ncccc2Cl)cc1C(F)(F)F` [Example 1-057], the IC50 is < 100 nM.

For `CC(C)(C)COc1ccc(NC(=O)c2cccc3c2OC[C@H](CO)N3c2ncccc2Cl)cc1` [Example 4-15], the IC50 was < 100 nM.

`Cc1ccc(N2CCOc3c(C(=O)Nc4ccc(N5CCC(O)CC5)c(F)c4)cccc32)nc1` [Example 1-171] showed a concentration for half-maximal inhibition (IC50) of 100 to 1000 nM.

In the case of `O=C(Nc1ccc(N2CCCCC2)c(F)c1)c1cccc2c1OC[C@H](CO)N2c1ncccc1Cl` [Example 4-10], the IC50 was < 100 nM.

For the compound `Cc1cccnc1N1c2cccc(C(=O)Nc3ccc(OCC(C)C)c(F)c3)c2OC[C@@H]1CO` [Example 4-44], the IC50 is < 100 nM.

Take `O=C(Nc1ccc(OCC(F)(F)F)cc1)c1cccc2c1OCCN2c1ncc(CO)cc1Cl` [Example 2-30]: the IC50 was < 100 nM.

`O=C(Nc1ccc(F)cc1)c1cccc2c1OCCN2c1ncccc1Cl` [Example 1-026]: the concentration for half-maximal inhibition (IC50) is 100 to 1000 nM.

For the compound `CC1COc2c(C(=O)Nc3ccc(C(C)(C)C)cc3)cccc2N1c1ncccc1Cl` (stereo not shown) [Example 1-003, N-(4-tert-butylphenyl)-4-(3-chloropyridin-2-yl)-3-methyl-3,4-dihydro-2H-benzo[1,4]oxazine-8-carboxamide], the IC50 is < 100 nM.

Compound `Cc1ccc(N2CCOc3c(C(=O)N[C@H]4CC[C@H](OC(C)C)CC4)cccc32)nc1` [Example 1-106] yielded an IC50 of 100 to 1000 nM.

As to `O=C(Nc1ccc(C(F)(F)F)cn1)c1cccc2c1OCCN2c1ncccc1Cl` [Example 1-029], the IC50 was < 100 nM.

For `Cc1ccc(N2c3cccc(C(=O)Nc4ccc(N5CCOCC5)c(F)c4)c3OC[C@@H]2CO)nc1` [Example 4-47], the IC50 was < 100 nM.

For the compound `COc1cnc(N2c3cccc(C(=O)Nc4ccc(OC(F)(F)F)cc4)c3OC[C@@H]2CO)c(Cl)c1` [Example 4-26], the IC50 is < 100 nM.

With `Cc1nc(N2c3cccc(C(=O)Nc4ccc(C(F)(F)F)cc4)c3OC[C@@H]2CO)sc1C` [Example 6-14, (S)-4-(4,5-dimethylthiazol-2-yl)-3-hydroxymethyl-N-(4-trifluoromethylphenyl)-3,4-dihydro-2H-benzo[1,4]oxazine-8-carboxamide], the IC50 is < 100 nM.

For the compound `O=C(Nc1ccc(OC(F)(F)F)cc1)c1cccc2c1OCC(CO)N2c1ncccc1Cl` (stereo not shown) [Example 4-52], the 50% inhibitory concentration (IC50) was < 100 nM.

For the compound `Cc1ccc(N2CCOc3c(C(=O)NCCc4ccc(Cl)cc4)cccc32)nc1` [Example 1-125], the 50% inhibitory concentration (IC50) was < 100 nM.

As to `O=C(Nc1cccc(OC(F)(F)F)c1)c1cccc2c1OCCN2c1ncc(CO)cc1Cl` [Example 2-47], the IC50 was < 100 nM.

As for `CC(C)Oc1ccc(NC(=O)c2cccc3c2OCCN3c2ncc(CO)cc2Cl)cc1C(F)(F)F` [Example 2-19], the concentration for half-maximal inhibition (IC50) is < 100 nM.

As to `Cc1ccc(N2CCOc3c(C(=O)Nc4ccc(N5CCCCC5)c(F)c4)cccc32)nc1` [Example 1-156], the IC50 was < 100 nM.

On to `O=C(Nc1nc2ccc(F)cc2s1)c1cccc2c1OCCN2c1ncc(CO)cc1Cl` [Example 2-22], for which the 50% inhibitory concentration (IC50) was < 100 nM.

Turning to `Cc1ccc(N2CCOc3c(C(=O)N[C@H]4CC[C@H](OCC(C)(C)C)CC4)cccc32)nc1` [Example 1-193], the IC50 is < 100 nM.

On to `COCc1cnc(N2CCOc3c(C(=O)Nc4ccc(OC(F)(F)F)cc4)cccc32)c(Cl)c1` [Example 1-220], for which the half-inhibitory concentration (IC50) is < 100 nM.

In the case of `O=C(Nc1ccc(Cl)cc1)c1cccc2c1OCCN2c1ncc(CO)cc1Cl` [Example 2-45], the IC50 is < 100 nM.

Regarding `O=C(Nc1ccc(C(F)(F)F)c(F)c1)c1cccc2c1OC[C@H](CO)N2c1ncccc1Cl` [Example 4-53], the IC50 was < 100 nM.

Compound `Cc1cccc(N2CCOc3c(C(=O)Nc4ccc(C(C)(C)C)cc4)cccc32)n1` [Example 1-059] came in with a half-inhibitory concentration (IC50) of 100 to 1000 nM.

The compound `O=C(Nc1ccc(C(F)(F)F)cc1)c1cccc2c1OCCN2c1ccc(OCCO)cn1` [Example 1-153] displayed a concentration for half-maximal inhibition (IC50) of 100 to 1000 nM.

Turning to `Cc1ccc(N2c3cccc(C(=O)Nc4ccc(OC(C)(C)C)c(F)c4)c3OC[C@@H]2CO)nc1` [Example 4-50], the concentration for half-maximal inhibition (IC50) was < 100 nM.

In the case of `COc1ccc(N2CCOc3c(C(=O)Nc4ccc(C(C)(C)C)cc4)cccc32)cc1` [Example 7-01, N-(4-tert-butylphenyl)-4-(4-methoxyphenyl)-3,4-dihydro-2H-benzo[1,4]oxazine-8-carboxamide], the IC50 was < 100 nM.

With `O=C(N[C@H]1CC[C@H](OC2CCCCC2)CC1)c1cccc2c1OCCN2c1ncccc1Cl` [Example 1-099], the half-inhibitory concentration (IC50) lay in the range of 100 to 1000 nM.

For the compound `CCOC(=O)CO[C@H]1CC[C@H](NC(=O)c2cccc3c2OCCN3c2ccc(C)cn2)CC1` [Example 1-176], the 50% inhibitory concentration (IC50) was 100 to 1000 nM.

As to `O=C(Nc1ccc(F)c([N+](=O)[O-])c1)c1cccc2c1OCCN2c1ncc(CO)cc1Cl` [Example 2-26], the half-maximal inhibitory concentration (IC50) fell in the range of 100 to 1000 nM.

`Cc1ccc(N2c3cccc(C(=O)Nc4ccc(F)c(C(F)(F)F)c4)c3OC[C@@H]2CO)nc1` [Example 4-55]: the IC50 was < 100 nM.

`O=C(O)c1cnc(N2CCOc3c(C(=O)Nc4ccc(OC(F)(F)F)c(Cl)c4)cccc32)c(Cl)c1` [Example 1-195]: the half-inhibitory concentration (IC50) is 100 to 1000 nM.

On to `Cc1cnc(N2c3cccc(C(=O)Nc4ccc(C(F)(F)F)nc4)c3OC[C@@H]2CO)s1` [Example 6-10], for which the IC50 is < 100 nM.

Regarding `COc1cc(NC(=O)c2cccc3c2OCCN3c2ccc(C)cn2)ccc1Cl` [Example 1-083], the IC50 is < 100 nM.

Regarding `O=C(Nc1ccc(C(F)(F)F)cc1)c1cccc2c1OCCN2c1ncc(F)cc1F` [Example 1-150], the IC50 was < 100 nM.

`Cc1ccc(N2CCOc3c(C(=O)NN4CCC(C(C)(C)C)CC4)cccc32)nc1` [Example 1-152] had a half-maximal inhibitory concentration (IC50) of 100 to 1000 nM.

Turning to `CC(=O)c1cc(NC(=O)c2cccc3c2OCCN3c2ccc(C)cn2)ccc1Cl` [Example 1-080], the IC50 is < 100 nM.

Turning to `O=C(Nc1ccc(OC(F)(F)F)cc1)c1cccc2c1OCCN2c1ncccc1Cl` [Example 1-022], the IC50 is < 100 nM.

Turning to `Cc1ccc(N2CCOc3c(C(=O)N[C@H]4CC[C@H](C(C)C)CC4)cccc32)nc1` [Example 1-191], the IC50 is < 100 nM.

`O=C(Nc1ccc(OC(F)(F)F)cc1)c1cccc2c1OCCN2c1ccc(OCCO)cn1` [Example 1-200] had an IC50 of 100 to 1000 nM.

With `CCCOc1ccc(NC(=O)c2cccc3c2OCCN3c2ccc(C)cn2)cc1F` [Example 1-085], the IC50 is < 100 nM.

As to `O=C(Nc1ccc(Br)c(C(F)(F)F)c1)c1cccc2c1OCCN2c1ncc(CO)cc1Cl` [Example 2-23], the IC50 was < 100 nM.

`O=C(Nc1ccc(C(F)(F)F)cc1)c1cccc2c1OCCN2c1ncc(CCO)cc1Cl` [Example 1-154]: the IC50 is < 100 nM.

In turn, `O=C(Nc1ccc(OC(F)(F)F)cc1)c1cccc2c1OCCN2c1ncccc1CO` [Example 2-11, N-(4-trifluoromethoxyphenyl)-4-(3-hydroxymethylpyridin-2-yl)-3,4-dihydro-2H-benzo[1,4]oxazine-8-carboxamide] displayed an IC50 of 100 to 1000 nM.

Consider `CN1CCCc2ccc(NC(=O)c3cccc4c3OCCN4c3ncccc3Cl)cc21` [Example 1-033], for which the 50% inhibitory concentration (IC50) is < 100 nM.

In turn, `O=C(Nc1ccc(C(F)(F)F)cc1)c1cccc2c1OC[C@H](C(=O)O)N2c1ncccc1Cl` [Example 1-229] registered an IC50 of 100 to 1000 nM.

Regarding `Cc1cnc(N2c3cccc(C(=O)Nc4ccc(C(F)(F)F)cc4)c3OC[C@@H]2CO)o1` [Example 6-12, (S)-3-hydroxymethyl-4-(5-methyloxazol-2-yl)-N-(4-trifluoromethylphenyl)-3,4-dihydro-2H-benzo[1,4]oxazine-8-carboxamide], the IC50 is < 100 nM.

Turning to `CC(C)(C)c1ccc(NC(=O)c2cccc3c2OCCN3c2ccc(N)cn2)cc1` [Example 1-141], the IC50 was < 100 nM.

For `O=C(Nc1ccc(SC(F)(F)F)cc1)c1cccc2c1OCCN2c1ncc(CO)cc1Cl` [Example 2-32], the IC50 is < 100 nM.

With `CC(C)(C)C1CCC(NC(=O)c2cccc3c2OCCN3c2ncc(CO)cc2Cl)CC1` (stereo not shown) [Example 2-33], the half-inhibitory concentration (IC50) was < 100 nM.

For `CCOc1ccc(NC(=O)c2cccc3c2OCCN3c2ccc(Cl)cn2)cc1` [Example 1-120], the half-inhibitory concentration (IC50) was < 100 nM.

With `CC(=O)c1ccc(NC(=O)c2cccc3c2OCCN3c2ccc(C)cn2)cc1` [Example 1-078], the concentration for half-maximal inhibition (IC50) is < 100 nM.
